Assay results as given in US11136324B2, “Substituted imidazoles as apoptosis signal regulating kinase 1 inhibitors” (Jiangsu Hansoh Pharmaceutical Group Co., Ltd., priority 2017, dated 2021).
pIC50: −log10 of the molar value.

How the values were obtained:
ASK1 kinase = ASK1 kinase (Homo sapiens (Human), UniProt Q99683); assay: ASK1 enzymatic test (TR-FRET); format: biochemical; details: ASK1 kinase activity
Procedure: In this test, the fluorescence-resonance energy transfer (TR-FRET) method was used to determine the inhibition effect of the test compounds on ASK1 kinase activity, and the half maximal inhibitory concentration IC50 of the compounds on ASK1 kinase activity was obtained.
1) 1˜5 μL of ASK1 enzyme solution was added to a 384-well plate, and the final concentration of the enzyme was 0.220 nM.
2) 1˜5 μL of gradient-diluted compound solution was added.
3) 1˜5 μL of a substrate mixture containing substrate polypeptides (final concentration: 100˜5000 nM) and ATP (final concentration: 100˜1000 uM) were added.
4) The mixture was incubated at room temperature for 0.5 to 5 hours.
5) 10 μL of EDTA and test solution containing labeled antibody were added, and the plate was incubated at room temperature for 2 to 24 hours.
6) The fluorescence signal value of each well was determined by a microplate reader at about 615 nm and 665 nm.
7) The inhibition rate was calculated by the fluorescence signal value.
8) The IC50 of the compound was obtained by curve fitting according to the inhibition rate at different concentrations.

[1] = Pharmacokinetic (PK) assay in mice; format: in vivo; details: Balb/c male mice, single intragastric administration, 5 mg/kg, plasma; for AUC(0-t) / AUC(0-inf) / half-life / MRT / Cmax: mouse, po; for AUC(0-t): read-out: Area under curve AUC0-t; for AUC(0-inf): read-out: Area under curve AUC0-∞; for half-life: read-out: Half-life t1/2 (converted); for MRT: read-out: Mean residence time MRT; for Cmax: read-out: Plasma concentration Cmax
Procedure: 2. Pharmacokinetic (PK) Assay in Mice
The pharmacokinetic test of the preferred examples of the present invention in mice was carried out in Balb/c male mice (Shanghai Jiesijie Laboratory Animal Co., LTD).
Administration mode: single intragastric administration.
Administration dosage: 5 mg/10 ml/kg.
Formulation: 0.5% CMC-Na, ultrasonic dissolution.
Sampling points: 0.5, 1, 2, 4, 6, 8 and 24 hours after administration.
1) 0.1 mL of blood was taken from the orbit, placed in a K2EDTA tube, and centrifuged for 5˜20 min at room temperature at 1000˜3000×g to separate the plasma, which was then stored at −80° C.
2) 160 μL of acetonitrile was added to 40 μL of plasma sample for precipitation, and then the mixture was centrifuged for 5˜20 minutes at 500˜2000×g.
3) 100 μL, of processed supernatant was taken and analyzed by LC/MS/MS assay to determine the concentration of the test compound.
LC-MS/MS Assay: • Liquid chromatography condition: Shimadzu LC-20AD pump • Mass spectrometry condition: AB Sciex API 4000 mass spectrometer • Chromatographic column: phenomenex Gemiu 5 μm C18 50×4.6 mm • Mobile phase: solution A was 0.1% aqueous formic acid solution, and solution B was acetonitrile • Flow rate: 0.8 mL/min • Elution time: 0-3.5 minutes gradient elution
The main parameters were calculated using WinNonlin 6.1.

Chain of ASK1 kinase (Q99683 whole entry): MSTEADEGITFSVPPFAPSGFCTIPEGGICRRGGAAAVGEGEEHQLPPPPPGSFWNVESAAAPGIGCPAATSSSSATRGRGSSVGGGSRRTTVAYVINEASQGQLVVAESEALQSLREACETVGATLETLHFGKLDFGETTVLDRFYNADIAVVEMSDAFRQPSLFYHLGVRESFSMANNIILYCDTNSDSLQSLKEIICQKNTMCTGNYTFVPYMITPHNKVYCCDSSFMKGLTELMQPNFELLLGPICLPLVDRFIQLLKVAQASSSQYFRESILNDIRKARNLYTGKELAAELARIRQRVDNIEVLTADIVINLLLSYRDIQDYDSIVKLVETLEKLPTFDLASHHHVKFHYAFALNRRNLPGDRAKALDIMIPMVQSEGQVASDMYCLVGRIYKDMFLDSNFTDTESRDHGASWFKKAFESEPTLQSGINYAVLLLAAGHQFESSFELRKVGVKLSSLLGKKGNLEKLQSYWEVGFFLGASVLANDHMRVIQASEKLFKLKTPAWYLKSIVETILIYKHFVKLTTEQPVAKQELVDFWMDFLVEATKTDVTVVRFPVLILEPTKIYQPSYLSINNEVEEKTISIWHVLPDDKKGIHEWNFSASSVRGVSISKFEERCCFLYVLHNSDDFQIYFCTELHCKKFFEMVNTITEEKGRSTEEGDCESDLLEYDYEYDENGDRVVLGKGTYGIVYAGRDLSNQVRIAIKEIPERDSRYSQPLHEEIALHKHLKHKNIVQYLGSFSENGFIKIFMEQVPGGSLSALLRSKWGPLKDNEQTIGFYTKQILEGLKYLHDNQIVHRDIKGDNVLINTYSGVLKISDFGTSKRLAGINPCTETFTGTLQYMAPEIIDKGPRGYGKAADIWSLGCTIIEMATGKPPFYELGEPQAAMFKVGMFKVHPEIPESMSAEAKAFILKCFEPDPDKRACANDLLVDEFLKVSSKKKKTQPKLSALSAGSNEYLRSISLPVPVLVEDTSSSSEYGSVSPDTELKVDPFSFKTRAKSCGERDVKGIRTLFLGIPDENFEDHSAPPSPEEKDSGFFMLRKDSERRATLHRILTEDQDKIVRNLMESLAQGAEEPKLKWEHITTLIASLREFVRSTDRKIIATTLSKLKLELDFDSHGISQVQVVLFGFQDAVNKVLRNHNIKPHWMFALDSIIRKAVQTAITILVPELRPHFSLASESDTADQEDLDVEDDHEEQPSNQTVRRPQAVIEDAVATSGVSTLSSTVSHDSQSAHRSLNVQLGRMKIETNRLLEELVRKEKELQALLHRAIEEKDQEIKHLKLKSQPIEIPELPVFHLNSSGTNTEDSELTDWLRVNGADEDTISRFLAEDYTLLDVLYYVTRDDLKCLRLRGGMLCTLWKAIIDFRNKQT

| pIC50 (ASK1 kinase) | Peak time tmax [1] | AUC(0-t) [1] | AUC(0-inf) [1] | half-life [1] | MRT [1] | Cmax [1] | Structure (SMILES) |
| --- | --- | --- | --- | --- | --- | --- | --- |
| 8.52 | – | – | – | – | – | – | Cc1cc(F)c(C(=O)Nc2cccc(-c3nnc4n3C3(CC4)CC3)n2)cc1-n1cnc(C(C)C)c1 [Example 62, N-(6-(6′,7′-Dihydrospiro[cyclopropane-1,5′-pyrrolo[2,1-c][1,2,4]triazol]-3′-yl)pyridin-2-yl)-2-fluoro-5-(4-isopropyl-1H-imidazol-1-yl)-4-methylbenzamide] |
| 8.39 | 0.5 h | 129000 ng·h/mL | 130000 ng·h/mL | 2.8 h | 5.1 h | 19400 ng/mL | C=CC1CCc2nnc(-c3cccc(NC(=O)c4cc(-n5cnc(C6CC6)c5)c(C)cc4F)n3)n21 (stereo not drawn) [Example 38, 5-(4-Cyclopropyl-1H-imidazol-1-yl)-2-fluoro-4-methyl-N-(6-(5-vinyl-6,7-dihydro-5H-pyrrolo[2,1-c][1,2,4]triazol-3-yl)pyridin-2-yl)benzamide] |
| 8.30 | 0.5 h | 38100 ng·h/mL | 38400 ng·h/mL | 4.4 h | 5.5 h | 4370 ng/mL | Cc1cc(F)c(C(=O)Nc2cccc(-c3nnc4n3[C@@H](C)CC4)n2)cc1-n1cnc(C2CC2)c1 [Example 9, (S)-5-(4-Cyclopropyl-1H-imidazol-1-yl)-2-fluoro-4-methyl-N-(6-(5-methyl-6,7-dihydro-5H-pyrrolo[2,1-c][1,2,4]triazol-3-yl)pyridin-2-yl)benzamide] |
| 7.87 | – | – | – | – | – | – | Cc1cc(F)c(C(=O)Nc2cccc(-c3nnc4n3CCCC4)n2)cc1-n1cnc(C2CC2)c1 [Example 3, 5-(4-Cyclopropyl-1H-imidazol-1-yl)-2-fluoro-4-methyl-N-(6-(5,6,7,8-tetrahydro-[1,2,4]triazolo[4,3-a]pyridin-3-yl)pyridin-2-yl)benzamide] |
| 8.31 | 1 h | 46400 ng·h/mL | 46400 ng·h/mL | 2.6 h | 3.9 h | 10900 ng/mL | Cc1cc(F)c(C(=O)Nc2cccc(-c3nnc4n3CC(C)(C)C4)n2)cc1-n1cnc(C2CC2)c1 [Example 32, 5-(4-Cyclopropyl-1H-imidazol-1-yl)-N-(6-(6,6-dimethyl-6,7-dihydro-5H-pyrrolo[2,1-c][1,2,4]triazol-3-yl)pyridin-2-yl)-2-fluoro-4-methylbenzamide] |
| 8.04 | – | – | – | – | – | – | CO[C@H](C)[C@H]1CCc2nnc(-c3cccc(NC(=O)c4cc(-n5cnc(C6CC6)c5)c(C)cc4F)n3)n21 [Example 36, 5-(4-Cyclopropyl-1H-imidazol-1-yl)-2-fluoro-N-(6-((R)-5-((R)-1-methoxyethyl)-6,7-di hydro-5H-pyrrolo[2,1-c][1,2,4]triazol-3-yl)pyridin-2-yl)-4-methylbenzamide] |
| – | 0.5 h | 70500 ng·h/mL | 70600 ng·h/mL | 3 h | 4.7 h | 9970 ng/mL | Cc1cc(F)c(C(=O)Nc2cccc(-c3nnc4n3[C@@H](CF)CC4)n2)cc1-n1cnc(C2CC2)c1 [Example 52, (R)-5-(4-Cyclopropyl-1H-imidazol-1-yl)-2-fluoro-N-(6-(5-(fluoromethyl)-6,7-dihydro-5H-pyrrolo[2,1-c][1,2,4]triazol-3-yl)pyridin-2-yl)-4-methylbenzamide] |
| 8.57 | 1 h | 11700 ng·h/mL | 11800 ng·h/mL | 1 h | 2 h | 5060 ng/mL | Cc1cc(F)c(C(=O)Nc2cccc(-c3nnc4n3[C@H](C)CC4)n2)cc1-n1cnc(C(C)C)c1 [Example 13, (R)-2-Fluoro-5-(4-isopropyl-1H-imidazol-1-yl)-4-methyl-N-(6-(5-methyl-6,7-dihydro-5H-pyrrolo[2,1-c][1,2,4]triazol-3-yl)pyridin-2-yl)benzamide] |
| 8.21 | – | – | – | – | – | – | Cc1cc(F)c(C(=O)Nc2cccc(-c3nnc4n3[C@H](CC#N)CC4)n2)cc1-n1cnc(C2CC2)c1 [Example 48, (S)—N-(6-(5-(Cyanomethyl)-6,7-dihydro-5H-pyrrolo[2,1-c][1,2,4]triazol-3-yl)pyridin-2-yl)-5-(4-cyclopropyl-1H-imidazol-1-yl)-2-fluoro-4-methylbenzamide] |
| 8.22 | 0.5 h | 104000 ng·h/mL | 104000 ng·h/mL | 2.9 h | 4.2 h | 18300 ng/mL | Cc1cc(F)c(C(=O)Nc2cccc(-c3nnc4n3CCC4)n2)cc1-n1cnc(C2CC2)c1 [Example 1, 5-(4-cyclopropyl-1H-imidazol-1-yl)-N-(6-(6,7-dihydro-5H-pyrrolo[2,1-c][1,2,4]triazol-3-yl)pyridin-2-yl)-2-fluoro-4-methylbenzamide] |
| 7.32 | – | – | – | – | – | – | Cc1cc(F)c(C(=O)Nc2cccc(-c3nnc4n3CCOC4)n2)cc1-n1cnc(C2CC2)c1 [Example 4, 5-(4-Cyclopropyl-1H-imidazol-1-yl)-N-(6-(5,6-dihydro-8H-[1,2,4]triazolo[3,4-c][1,4]oxazin-3-yl)pyridin-2-yl)-2-fluoro-4-methylbenzamide] |
| – | 1 h | 107000 ng·h/mL | 108000 ng·h/mL | 3.7 h | 5 h | 13500 ng/mL | Cc1cc(F)c(C(=O)Nc2cccc(-c3nnc4n3C[C@@H](C)C4)n2)cc1-n1cnc(C2CC2)c1 [Example 35, (S)-5-(4-Cyclopropyl-1H-imidazol-1-yl)-2-fluoro-4-methyl-N-(6-(6-methyl-6,7-di hydro-5H-pyrrolo[2,1-c][1,2,4]triazol-3-yl)pyridin-2-yl)benzamide] |
| 8.03 | – | – | – | – | – | – | Cc1cc(F)c(C(=O)Nc2cccc(-c3nnc4n3CCCCC4)n2)cc1-n1cnc(C2CC2)c1 [Example 2, 5-(4-Cyclopropyl-1H-imidazol-1-yl)-2-fluoro-4-methy 1-N-(6-(6,7,8,9-tetrahydro-5H-[1,2,4]triazolo[4,3-a]azepin-3-yl)pyridin-2-yl)benzamide] |
| 8.44 | – | – | – | – | – | – | C#CC1CCc2nnc(-c3cccc(NC(=O)c4cc(-n5cnc(C6CC6)c5)c(C)cc4F)n3)n21 (stereo not drawn) [Example 44, 5-(4-Cyclopropyl-1H-imidazol-1-yl)-N-(6-(5-ethynyl-6,7-dihydro-5H-pyrrolo[2,1-c][1,2,4]triazol-3-yl)pyridin-2-yl)-2-fluoro-4-methylbenzamide] |
| 8.08 | – | – | – | – | – | – | Cc1cc2c(cc1-n1cnc(C3CC3)c1)C(=O)N(c1cccc(-c3nnc4n3CCC4)n1)C2 [Example 63, 6-(4-Cyclopropyl-1H-imidazol-1-yl)-2-(6-(6,7-dihydro-5H-pyrrolo[2,1-c][1,2,4]triazol-3-yl)pyridin-2-yl)-5-methylisoindolin-1-one] |
| 7.71 | – | – | – | – | – | – | O=C(Nc1cccc(-c2nnc3n2CCC3)c1)c1cc(-n2cnc(C3CC3)c2)ccn1 [Example 7, 4-(4-Cyclopropyl-1H-imidazol-1-yl)-N-(3-(6,7-dihydro-5H-pyrrolo[2,1-c][1,2,4]triazol-3-yl)phenyl)picolinamide] |
| 7.96 | – | – | – | – | – | – | Cc1cc(F)c(C(=O)Nc2cccc(-c3nnc4n3CC3(CC3)C4)n2)cc1-n1cnc(C2CC2)c1 [Example 31, N-(6-(5′H,7′H-Spiro[cyclopropane-1,6′-pyrrolo[2,1-c][1,2,4]triazol]-3′-yl)pyridin-2-yl)-5-(4-cyclopropyl-1H-imidazol-1-yl)-2-fluoro-4-methylbenzamide] |
| 8.02 | – | – | – | – | – | – | Cc1cc(F)c(C(=O)Nc2cccc(-c3nnc4n3[C@H](CO)CC4)n2)cc1-n1cnc(C2CC2)c1 [Example 50, (S)-5-(4-Cyclopropyl-1H-imidazol-1-yl)-2-fluoro-N-(6-(5-(hydroxymethyl)-6,7-dihydro-5H-pyrrolo[2,1-c][1,2,4]triazol-3-yl)pyridin-2-yl)-4-methylbenzamide] |
| 7.94 | – | – | – | – | – | – | Cc1cc(F)c(C(=O)Nc2cccc(-c3nnc4n3CC(C3CC3)C4)n2)cc1-n1cnc(C2CC2)c1 (stereo not drawn) [Example 30, 5-(4-Cyclopropyl-1H-imidazol-1-yl)-N-(6-(6-cyclopropyl-6,7-dihydro-5H-pyrrolo[2,1-c][1,2,4]triazol-3-yl)pyridin-2-yl)-2-fluoro-4-methylbenzamide] |
| 8.09 | – | – | – | – | – | – | Cc1cc(Cl)c(C(=O)Nc2cccc(-c3nnc4n3[C@H](C)CC4)n2)cc1-n1cnc(C2CC2)c1 [Example 53, (R)-2-Chloro-5-(4-cyclopropyl-1H-imidazol-1-yl)-4-methyl-N-(6-(5-methyl-6,7-dihydro-5H-pyrrolo[2,1-c][1,2,4]triazol-3-yl)pyridin-2-yl)benzamide] |
